Starred links: 1 amine or outer side, 2 acyl side, 3 side chain; linkers in the order of their positions; H or OH if unused. Positions of bridges follow the written chain, without caps; N, C: chain ends. Residues, ends and D or L forms follow the SMILES beside them. *: point of attachment. C18 diacid = O=C(O)CCCCCCCCCCCCCCCCC(=O)*; γGlu = O=C(O)[C@H](CCC(=O)[*:2])N[*:1]; AEEA = NCCOCCOCC(=O)O
What was measured:
[1] = Thioflavin T (ThT) assay: lagtime and peptide recovery; assay type: physicochemical; conditions: assay terminated after 45 hours; for LagTime (h) at pH 6.5: ThT assay, pH 6.5, 37° C.
Outline: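 ThT (final about 1 μM) was added to peptide supernatants at pH 4.0 and 6.5 and incubated at 37 °C with orbital shaking for 45 h. Fluorescence (ex 444/em 485 nm) was read every 20 min, and lag-time was taken as the time to onset of signal rise. Recovery is the RP-UPLC (215 nm) total peak area after vs. before incubation.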

[2] = High-Molecular-Weight-Protein (HMWP) formation by SEC-UPLC; assay type: physicochemical; conditions: increase over two weeks at 37° C.
Outline: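 Formulations at pH 4.0 or 6.5 incubated quiescently for two weeks at 37 °C; HMWP (peaks eluting before monomer, % of total peptide area) measured by SEC-UPLC, pH 2.4 mobile phase with 50% isopropanol, 50 °C, UV 215 nm. Value is HMWP increase, normalized to two weeks if needed.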

SMILES	LagTime (h) at pH 6.5 [1] [h]	2-Week HMWP formation at pH 6.5 (%), % relative to total peak area [2] [%]	LagTime (h) at pH 4.0 ([1]; ThT, 37° C., shaking) [h]	2-Week HMWP formation at pH 4.0 (%), % relative to total peak area ([2]; pH 4.0) [%]
CC[C@H](C)[C@@H]1NC(=O)[C@H](CCCNC(=N)N)NC(=O)[C@H](CC(=O)O)NC(=O)[C@H](CC(C)C)NC(=O)[C@@H]2CCCN2C(=O)[C@H](CC(C)C)NC(=O)CNC(=O)[C@H](Cc2ccccc2)NC(=O)[C@@H](NC(=O)CNC(=O)[C@H](CCC(N)=O)NC(=O)[C@H](CO)NC(=O)[C@H](CO)NC(=O)CNC(=O)[C@H](CCCCN)NC(=O)[C@H](CCCCN)NC(=O)[C@H](CCC(N)=O)NC(=O)[C@H](C)NC(=O)CNC(=O)[C@@H]2CCCN2C(=O)[C@H](C)NC(=O)[C@H](CCC(N)=O)NC(=O)CNC(=O)[C@@H]2CCCN2C(=O)[C@H](C)NC(=O)[C@H](CCC(N)=O)NC(=O)CNC(=O)[C@@H]2CCCN2C(=O)[C@H](C)NC(=O)[C@H](CCC(N)=O)NC(=O)CNC(=O)COCCOCCNC(=O)COCCOCCNC(=O)CC[C@H](NC(=O)CCCCCCCCCCCCCCCCC(=O)O)C(=O)O)CSSC[C@@H](C(=O)O)NC(=O)CNC(=O)[C@H](CC(C)C)NC(=O)CNC(=O)[C@H](CO)NC(=O)[C@H](CC(C)C)NC(=O)[C@H](CO)NC(=O)CNC1=O [compound 1457] ({C18 diacid-γGlu-AEEA-AEEA}-GQAPGQAPGQAPGAQKKGSSQGCFGLPLDRIGSLSGLGC-OH; disulfide 23-39)	45	3.24		
CC[C@H](C)[C@@H]1NC(=O)[C@H](CCCNC(=N)N)NC(=O)[C@H](CC(=O)O)NC(=O)[C@H](CC(C)C)NC(=O)[C@@H]2CCCN2C(=O)[C@H](CC(C)C)NC(=O)CNC(=O)[C@H](Cc2ccccc2)NC(=O)[C@@H](NC(=O)CNC(=O)[C@H](CO)NC(=O)[C@H](CO)NC(=O)[C@H](CC(C)C)NC(=O)CNC(=O)[C@H](CCCCN)NC(=O)[C@H](CCCCN)NC(=O)[C@H](CCC(N)=O)NC(=O)[C@H](C)NC(=O)CNC(=O)[C@H](CCC(=O)O)NC(=O)[C@H](Cc2ccc(O)cc2)NC(=O)COCCOCCNC(=O)COCCOCCNC(=O)COCCOCCNC(=O)COCCOCCNC(=O)CC[C@H](NC(=O)CCCCCCCCCCCCCCCCC(=O)O)C(=O)O)CSSC[C@@H](C(=O)O)NC(=O)CNC(=O)[C@H](CC(C)C)NC(=O)CNC(=O)[C@H](CO)NC(=O)[C@H](CC(C)C)NC(=O)[C@H](CO)NC(=O)CNC1=O [compound 1392] ({C18 diacid-γGlu-AEEA-AEEA-AEEA-AEEA}-YEGAQKKGLSSGCFGLPLDRIGSLSGLGC-OH; disulfide 13-29)	45	0.33		
CC[C@H](C)[C@@H]1NC(=O)[C@H](CCCNC(=N)N)NC(=O)[C@H](CC(=O)O)NC(=O)[C@H](CC(C)C)NC(=O)[C@@H]2CCCN2C(=O)[C@H](CC(C)C)NC(=O)CNC(=O)[C@H](Cc2ccccc2)NC(=O)[C@@H](NC(=O)CNC(=O)[C@H](CCC(N)=O)NC(=O)[C@H](CO)NC(=O)[C@H](CO)NC(=O)CNC(=O)[C@H](Cc2c[nH]cn2)NC(=O)[C@H](Cc2c[nH]cn2)NC(=O)[C@H](CCC(N)=O)NC(=O)[C@H](C)NC(=O)CNC(=O)[C@H](Cc2c[nH]cn2)NC(=O)[C@H](Cc2ccc(O)cc2)NC(=O)[C@H](CCCCN)NC(=O)[C@H](Cc2c[nH]cn2)NC(=O)[C@H](C)NC(=O)[C@H](CCC(N)=O)NC(=O)[C@@H]2CCCN2C(=O)[C@H](Cc2c[nH]cn2)NC(=O)[C@H](CCC(=O)O)NC(=O)[C@H](CCC(N)=O)NC(=O)COCCOCCNC(=O)COCCOCCNC(=O)CC[C@H](NC(=O)CCCCCCCCCCCCCCCCC(=O)O)C(=O)O)CSSC[C@@H](C(=O)O)NC(=O)CNC(=O)[C@H](CC(C)C)NC(=O)CNC(=O)[C@H](CO)NC(=O)[C@H](CC(C)C)NC(=O)[C@H](CO)NC(=O)CNC1=O [compound 1381] ({C18 diacid-γGlu-AEEA-AEEA}-QEHPQAHKYHGAQHHGSSQGCFGLPLDRIGSLSGLGC-OH; disulfide 21-37)			45	0.84
